According to patent publication US20120129842A1, “BISTHIAZOLE INHIBITORS OF PRO-MATRIX METALLOPROTEINASE ACTIVATION” (priority 2010, published 2012):
Where a name gives a salt, the structure may show the parent alone.

Experiments:
[1] = biological target: T1, proMMP9(20-445;ΔFnII) (SEQ ID NO:6) (Homo sapiens, UniProt P14780, DEL216-390); assay: ThermoFluor binding assay with proMMP9(20-445;ΔFnII); details: pH 7.0
T1 construct: start methionine (N); made in house; host or cells: E. coli BL21(DE3) RIL
T1 sequence (P14780 with tags, fused parts or gaps DEL216-390): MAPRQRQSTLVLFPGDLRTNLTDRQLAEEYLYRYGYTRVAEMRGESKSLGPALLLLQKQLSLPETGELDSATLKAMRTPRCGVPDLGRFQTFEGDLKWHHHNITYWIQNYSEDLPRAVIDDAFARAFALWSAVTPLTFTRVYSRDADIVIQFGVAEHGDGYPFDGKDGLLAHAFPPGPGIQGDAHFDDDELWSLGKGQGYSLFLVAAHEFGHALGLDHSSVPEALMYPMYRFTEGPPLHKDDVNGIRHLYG
Procedure: (§1) The ThermoFluor® (TF) assay is a 384-well plate-based binding assay that measures thermal stability of proteins (Biomol Screen 2001, 6, 429-40; Biochemistry 2005, 44, 5258-66). The experiments were carried out using instruments available from Johnson & Johnson Pharmaceutical Research & Development, LLC. TF dye used in all experiments was […] (1,8-ANS) (Invitrogen: A-47).
(§2) Compounds were arranged in a pre-dispensed plate (Greiner Bio-one: 781280), wherein compounds were serially diluted in 100% DMSO across 11 columns within a series. Columns 12 and 24 were used as DMSO reference and contained no compound. For multiple compound concentration-response experiments, the compound aliquots ([…]) were robotically predispensed directly into black 384-well polypropylene PCR microplates (Abgene: TF-0384/k) using a Cartesian Hummingbird liquid handler (DigiLab, Holliston, Mass.). Following compound dispense, protein and dye solutions were added to achieve the final assay volume of 3 μL. The assay solutions were overlayed with 1 μL of silicone oil (Fluka, type DC 200: 85411) to prevent evaporation.
(§3) Assay plates were robotically loaded onto a thermostatically controlled PCR-type thermal block and then heated from 40 to 90° C. at a ramp-rate of 1° C./min for all experiments. Fluorescence was measured by continuous illumination with UV light (Hamamatsu LC6) supplied via fiber optics and filtered through a band-pass filter (380-400 nm; >6 OD cutoff). Fluorescence emission of the entire 384-well plate was detected by measuring light intensity using a CCD camera (Sensys, Roper Scientific) filtered to detect 500±25 nm, resulting in simultaneous and independent readings of all 384 wells. A single image with 20-sec exposure time was collected at each temperature, and the sum of the pixel intensity in a given area of the assay plate was recorded vs temperature and fit to standard equations to yield the Tm (J Biomol Screen 2001, 6, 429-40).
(§4) Thermodynamic parameters necessary for fitting compound binding for each proMMP were estimated by differential scanning calorimetry (DSC) and from ThermoFluor® data. The heat capacity of unfolding for each protein was estimated from the molecular weight and from ThermoFluor® dosing data.
The protein sample preparations included a desalting buffer exchange step via a PD-10 gravity column (GE Healthcare). The desalting buffer exchange was performed prior to diluting the protein to the final assay concentration of 2.8 μM proMMP9(20-445;ΔFnII) (SEQ ID NO:6). The concentration of proMMP9(20-445;ΔFnII) (SEQ ID NO:6) was determined spectrophotometrically based on a calculated extinction coefficient of ε280=39880 M^−cm^−1, a calculated molecular weight of 28.2 kDa, and calculated pI of 5.5. ThermoFluor® reference conditions were define as follows: 80 μg/mL (2.8 μM) proMMP9(20-445;ΔFnII) (SEQ ID NO:6), 50 μM 1,8-ANS, pH 7.0 Buffer (50 mM HEPES pH 7.0, 100 mM NaCl, 0.001% Tween-20, 2.5 mM MgCl2, 300 μM CaCl2). The thermodynamic parameters for proMMP9(20-445;ΔFnII) (SEQ ID NO:6) are as follows: Tm (° C.)=72 (+/−0.1), ΔUH(Tm) (cal mol^−1)=160000(+/−5000), ΔUS(Tm) (cal mol^−1 K^−1)=434, ΔUCp (cal mol^−1 K^−)=2400.

[2] = biological target: T2, full-length proMMP9(1-707) (SEQ ID NO:1) (Homo sapiens, UniProt P14780, R574P); assay: proMMP9/MMP3 P126 Activation Assay; type: biochemical; details: 20 nM proMMP9, 20 nM MMP3, 80 min 37° C.
T2 construct: made in house; host or cells: HEK293 (proMMP9, secreted); E. coli (MMP3)
Procedure: The reaction volume was 50 μL. […] Reactivity of residual MMP3 towards P-126 substrate was minimal under these conditions.

[3] = biological target: T3, proMMP9(67-444;ΔFnII) (SEQ ID NO:5) (Homo sapiens, UniProt P14780, DEL216-390); assay: ThermoFluor binding assay with proMMP9(67-444;ΔFnII); details: pH 7.0
T3 construct: start methionine (N); made in house; host or cells: E. coli BL21(DE3) RIL
T3 sequence (P14780 with tags, fused parts or gaps DEL216-390): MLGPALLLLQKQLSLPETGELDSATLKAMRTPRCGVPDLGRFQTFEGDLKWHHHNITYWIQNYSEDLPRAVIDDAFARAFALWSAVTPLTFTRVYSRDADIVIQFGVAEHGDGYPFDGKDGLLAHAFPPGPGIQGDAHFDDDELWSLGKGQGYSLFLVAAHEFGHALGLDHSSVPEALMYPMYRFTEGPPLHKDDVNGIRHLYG
Procedure: as §1, §2, §3, §4
The protein sample preparations had to include a desalting buffer exchange step via a PD-10 gravity column (GE Healthcare). The desalting buffer exchange was performed prior to diluting the protein to the final assay concentration of 3.5 μM proMMP9(67-444;ΔFnII) (SEQ ID NO:5). The concentration of proMMP9(67-444;ΔFnII) (SEQ ID NO:5) was determined spectrophotometrically based on a calculated extinction coefficient of ε280=33900 M^−1cm^−1, a calculated molecular weight of 22.6 kDa, and calculated pI of 5.20. ThermoFluor® reference conditions were defined as follows: 80 μg/mL (3.5 μM) proMMP9(67-444;ΔFnII) (SEQ ID NO:5), 50 μM 1,8-ANS, pH 7.0 Buffer (50 mM HEPES pH 7.0, 100 mM NaCl, 0.001% Tween-20, 2.5 mM MgCl2, 300 μM CaCl2). The thermodynamic parameters for proMMP9(67-444;ΔFnII) (SEQ ID NO:5) are as follows: Tm (° C.)=63 (+/−0.1), ΔUH(Tm) (cal mol^−1)=105000(+/−5000), ΔUS(Tm) (cal mol^−1 K^−1)=[…], ΔUCp (cal mol^−1 K^−1)=2000.

T2 sequence (P14780 20-707 R574P): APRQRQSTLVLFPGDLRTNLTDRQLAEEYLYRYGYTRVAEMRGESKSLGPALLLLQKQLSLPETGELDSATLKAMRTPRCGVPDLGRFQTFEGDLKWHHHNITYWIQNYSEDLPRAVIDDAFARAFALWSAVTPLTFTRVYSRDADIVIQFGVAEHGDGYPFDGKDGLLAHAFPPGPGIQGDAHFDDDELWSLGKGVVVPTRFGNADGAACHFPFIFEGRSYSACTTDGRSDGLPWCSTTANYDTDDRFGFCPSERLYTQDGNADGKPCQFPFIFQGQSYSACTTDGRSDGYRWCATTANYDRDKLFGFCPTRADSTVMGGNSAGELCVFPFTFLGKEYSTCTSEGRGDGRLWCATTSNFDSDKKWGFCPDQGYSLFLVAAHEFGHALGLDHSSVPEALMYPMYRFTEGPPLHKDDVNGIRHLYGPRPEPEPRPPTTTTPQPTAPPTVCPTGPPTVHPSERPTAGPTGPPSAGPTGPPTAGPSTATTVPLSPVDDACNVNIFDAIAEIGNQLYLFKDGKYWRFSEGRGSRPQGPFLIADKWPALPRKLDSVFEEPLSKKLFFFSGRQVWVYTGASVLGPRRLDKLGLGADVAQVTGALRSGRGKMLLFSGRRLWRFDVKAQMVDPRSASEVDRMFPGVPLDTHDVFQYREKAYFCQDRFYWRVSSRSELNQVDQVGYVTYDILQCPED

| SMILES | Kd [1] | IC50 [2] | Kd [3] |
| --- | --- | --- | --- |
| Cc1nc(N)sc1-c1csc(Nc2cc(C(=O)O)ccc2OC(C)C)n1 [Example 77, 3-(2′-Amino-4′-methyl-[4,5′]bithiazolyl-2-ylamino)-4-isopropoxy-benzoic acid.TFA] | 350 nM | 410 nM | 450 nM |
| COc1ccc(NC(C)=O)cc1Nc1nc(-c2sc(N)nc2C)cs1 [Example 84, N-[3-(2′-Amino-4′-methyl-[4,5′]bithiazolyl-2-ylamino)-4-methoxy-phenyl]-acetamide.TFA] | 19000 nM | 9800 nM | 9700 nM |
| Cc1nc(N2CCCC2)sc1-c1csc(Nc2cc(C(N)=O)ccc2OC(C)C)n1 [Example 91, 4-Isopropoxy-3-(4′-methyl-2′-pyrrolidin-1-yl-[4,5′]bithiazolyl-2-ylamino)-benzamide.TFA] | 140 nM | 300 nM | 520 nM |
| Cc1nc(Nc2ccncc2)sc1-c1csc(Nc2cc(C(N)=O)ccc2OC(C)C)n1 [Example 92, 4-Isopropoxy-3-[4′-methyl-2′-(pyridin-4-ylamino)-[4,5′]bithiazolyl-2-ylamino]-benzamide.TFA] | 45 nM | 340 nM | 220 nM |
| Cc1nc(-c2ncc(C(F)(F)F)cc2N2CCCC2)sc1-c1csc(Nc2cc(C(N)=O)ccc2OC(C)C)n1 [Example 97, 4-Isopropoxy-3-[4′-methyl-2′-(3-pyrrolidin-1-yl-5-trifluoromethyl-pyridin-2-yl)-[4,5′]bithiazolyl-2-ylamino]-benzamide.TFA] | 1900 nM | > 20000 nM | > 95000 nM |
| COc1ccc(-c2ccc(C(C)=O)s2)cc1Nc1nc(-c2sc(C)nc2C)cs1 [Example 134, 1-{5-[3-(2′,4′-Dimethyl-[4,5′]bithiazolyl-2-ylamino)-4-methoxy-phenyl]-thiophen-2-yl}-ethanone] | 18000 nM | > 20000 nM | > 95000 nM |
| COc1ccc(-c2c(C)noc2C)cc1Nc1nc(-c2sc(C)nc2C)cs1 [Example 135, (2′,4′-Dimethyl-[4,5′]bithiazolyl-2-yl)-[5-(3,5-dimethyl-isoxazol-4-yl)-2-methoxy-phenyl]-amine] | 31000 nM | ~5000 nM | 40000 nM |
| COc1ccc(-c2cnn(C)c2)cc1Nc1nc(-c2sc(C)nc2C)cs1 [Example 136, (2′,4′-Dimethyl-[4,5′]bithiazolyl-2-yl)-[2-methoxy-5-(1-methyl-1H-pyrazol-4-yl)-phenyl]-amine] | 38000 nM | ~6000 nM | 8200 nM |
| COc1ccc(-c2cc[nH]n2)cc1Nc1nc(-c2sc(C)nc2C)cs1 [Example 137, (2′,4′-Dimethyl-[4,5′]bithiazolyl-2-yl)-[2-methoxy-5-(1H-pyrazol-3-yl)-phenyl]-amine] | 11000 nM | 4700 nM | 2200 nM |
| Cc1nc(-c2cnccn2)sc1-c1csc(Nc2cc(C(N)=O)ccc2OC(C)C)n1 [Example 145] | 130 nM | 780 nM | 650 nM |
| COc1ccncc1Nc1nc(-c2sc(C)nc2C)cs1 [Example 151, N-(4-Methoxypyridin-3-yl)-2′,4′-dimethyl-[4,5′-bithiazol]-2-amine] | 3700 nM | 410 nM | 570 nM |
| Cc1nc(C)c(-c2nc(Nc3cc(S(N)(=O)=O)ccc3OC(C)C)sc2C)s1 [Example 152, 4-Isopropoxy-3-((2′,4′,5-trimethyl-[4,5′-bithiazol]-2-yl)amino)benzenesulfonamide] | 5700 nM | 4700 nM | 6400 nM |
| Cc1nc(C)c(-c2nc(Nc3cc(C(N)=O)ccc3OC(C)C)sc2C)s1 [Example 153, 4-Isopropoxy-3-((2′,4′,5-trimethyl-[4,5′-bithiazol]-2-yl)amino)benzamide] | 1600 nM | 1400 nM | 4500 nM |
| CCSc1ccc(S(N)(=O)=O)cc1Nc1nc(-c2sc(C)nc2C)cs1 [Example 154, 3-((2′,4′-Dimethyl-[4,5′-bithiazol]-2-yl)amino)-4-(ethylthio)benzenesulfonamide] | 2200 nM | 2600 nM | 2000 nM |
